PMC9847585 (ACS infectious diseases, 2021)
≈ marks a conversion by molar mass, not a printed value. Read-outs that look alike come from different tables or passages of the source.

How the values were obtained:
tPBP2^H041 [1] = test: time-dependent gel-based assay, second-order acylation by Bocillin-FL; assay type: biochemical, Neisseria gonorrhoeae; details: time-course, pH 8.0, room temperature
tPBP2^H041-K361E [2] = test: time-dependent gel-based assay, acylation of K361E mutant by Bocillin-FL; assay type: biochemical, Neisseria gonorrhoeae
N. gonorrhoeae H041 = test: minimum inhibitory concentration by agar dilution; assay type: cell-based, Neisseria gonorrhoeae
tPBP2^H041-K361E [3] = test: gel-based competition assay with Bocillin-FL against K361E mutant; assay type: biochemical, Neisseria gonorrhoeae; details: for Fractional Activity: fractional acylation rate of K361E compared to native tPBP2^H041; for K361E k2/Ks: tPBP2^H041-K361E mutant, competition with Bocillin-FL; for reduction in acylation rate against K361E mutant: K361E versus native tPBP2^H041
[4] = tested on: N. gonorrhoeae strain H041
[5] = cited from earlier work
(non-mosaic) PBP2 = details: membrane preparations; cited from earlier work
tPBP2^H041 [6] = test: gel-based competition assay with Bocillin-FL, second-order acylation rate; assay type: biochemical, Neisseria gonorrhoeae
[7] = whole molecule; cited from earlier work
[8] = tested on: FA19 with mosaic penA gene from H041 (penA41); details: allelic exchange; cited from earlier work
H041 = details: cited from earlier work
tPBP2^H041 [9] = details: cited from earlier work
[10] = tested on: wild-type PBP2 (tPBP2^WT); details: cited from earlier work
[11] = Neisseria gonorrhoeae, H041, 24 h

Cc1cc(C)n2c1C=C1C=CC(CCC(=O)Nc3ccc(OCC(=O)N[C@@H]4C(=O)N5[C@@H]4SC(C)(C)[C@@H]5C(=O)[O-])cc3)=[N+]1[B-]2(F)F.[Na+] [Bocillin-FL]
second-order acylation rate k2/Ks of Bocillin-FL (tPBP2^H041 [1]): 275 ± 9 M⁻¹ s⁻¹
decrease in Bocillin-FL acylation rate against K361E (tPBP2^H041-K361E [2]; compared to the native enzyme): 5 fold
second-order acylation rate of Bocillin-FL against K361E (tPBP2^H041-K361E [2]; tPBP2^H041-K361E mutant, time-course): 57 ± 1 M⁻¹ s⁻¹

N[C@@H](C(=O)N[C@@H]1C(=O)N2C(C(=O)O)=C(Cl)CS[C@H]12)c1ccccc1 [cefaclor]
MIC (N. gonorrhoeae H041; [11]): ≥ 32 µg/mL

C=CC1=C(C(=O)O)N2C(=O)[C@@H](NC(=O)/C(=N\O)c3csc(N)n3)[C@H]2SC1 [cefdinir]
MIC (N. gonorrhoeae H041; [11]): 2 µg/mL (≈ 5.06 µM)

CO/N=C(\C(=O)N[C@@H]1C(=O)N2C(C(=O)[O-])=C(C[N+]3(C)CCCC3)CS[C@H]12)c1csc(N)n1 [cefepime]
Fractional Activity (tPBP2^H041-K361E [3]): 0.64
K361E k2/Ks (tPBP2^H041-K361E [3]): 410 ± 130 M⁻¹ s⁻¹

CCN1CCN(C(=O)N[C@@H](C(=O)N[C@@H]2C(=O)N3C(C(=O)O)=C(CSc4nnnn4C)CS[C@H]23)c2ccc(O)cc2)C(=O)C1=O [cefoperazone]
culture negativity ([4]; 120 mg/kg TID one day, intraperitoneal, by day 3 post-treatment, n = 9): 100%
route of excretion [5]: primarily biliary
reduction in acylation rate against K361E mutant (tPBP2^H041-K361E [3]): 32 fold
Fractional Activity (tPBP2^H041-K361E [3]): 0.03
K361E k2/Ks (tPBP2^H041-K361E [3]): 370 ± 60 M⁻¹ s⁻¹
MIC (N. gonorrhoeae H041; [11]): 1 µg/mL (≈ 1.55 µM)
concentration at which bound to PBP2 ((non-mosaic) PBP2): less than 10^−3 μg/mL
acylation rate relative to ceftriaxone (faster) (tPBP2^H041 [6]): 7 fold

CO[C@@]1(NC(=O)Cc2cccs2)C(=O)N2C(C(=O)O)=C(COC(N)=O)CS[C@@H]21 [cefoxitin]
MIC (N. gonorrhoeae H041; 24 hr): 3 µg/mL (≈ 7.02 µM)
MIC (N. gonorrhoeae H041; [11]): 4 µg/mL (≈ 9.36 µM)

Cc1cc(O)c(C(=O)N[C@@H](C(=O)N[C@@H]2C(=O)N3C(C(=O)O)=C(CSc4nnnn4C)CS[C@H]23)c2ccc(O)cc2)cn1 [cefpiramide]
k2/Ks lower than cefoperazone (tPBP2^H041 [6]): 100 fold

NC(=O)c1cc[n+](CC2=C(C(=O)O)N3C(=O)[C@@H](NC(=O)[C@@H](c4ccccc4)S(=O)(=O)[O-])[C@H]3SC2)cc1 [cefsulodin]
MIC (N. gonorrhoeae H041; [11]): ≥ 32 µg/mL

CCO/N=C(\C(=O)N[C@@H]1C(=O)N2C(C(=O)[O-])=C(Sc3nc(-c4cc[n+](C)cc4)cs3)CS[C@H]12)c1nsc(N)n1 [ceftaroline]
logD7.4 [7]: 1.03

CC(C)(O/N=C(\C(=O)N[C@@H]1C(=O)N2C(C(=O)[O-])=C(C[n+]3ccccc3)CS[C@H]12)c1csc(N)n1)C(=O)O [ceftazidime]
Fractional Activity (tPBP2^H041-K361E [3]): 0.70
K361E k2/Ks (tPBP2^H041-K361E [3]): 560 ± 180 M⁻¹ s⁻¹
MIC (N. gonorrhoeae H041; [11]): ≥ 32 µg/mL

CO/N=C(\C(=O)N[C@@H]1C(=O)N2C(C(=O)O)=C(CSc3nc(=O)c(=O)[nH]n3C)CS[C@H]12)c1csc(N)n1 [ceftriaxone]
route of excretion [5]: primarily renal
reduction in acylation rate against K361E mutant (tPBP2^H041-K361E [3]): 6 fold
Fractional Activity (tPBP2^H041-K361E [3]): 0.17
K361E k2/Ks (tPBP2^H041-K361E [3]): 290 ± 70 M⁻¹ s⁻¹
MIC (N. gonorrhoeae H041; [11]): 2 µg/mL (≈ 3.61 µM)
increase in MIC on replacing wild-type penA in FA19 with penA41 [8]: 570 fold
increase in MIC compared to strain FA19 (H041; H041 versus FA19): 3,000 fold
MIC (H041; strain H041): 2 µg/mL (≈ 3.61 µM)
k3 (deacylation rate) of acylated complex (tPBP2^H041 [9]): 8.1e-05 s⁻¹
k3 (deacylation rate) of acylated complex [10]: 2.8e-06 s⁻¹

CC1=C(C(=O)O)N2C(=O)[C@@H](NC(=O)[C@H](N)c3ccccc3)[C@H]2SC1 [cephalexin]
MIC (N. gonorrhoeae H041; [11]): ≥ 32 µg/mL

CC(=O)OCC1=C(C(=O)O)N2C(=O)[C@@H](NC(=O)Cc3cccs3)[C@H]2SC1 [cephalothin]
MIC (N. gonorrhoeae H041; [11]): ≥ 32 µg/mL

CNC(C)C1CCC(N)C(OC2C(N)CC(N)C(OC3OCC(C)(O)C(NC)C3O)C2O)O1 (stereo not shown) [gentamicin]
culture negativity ([4]; 48 mg/kg once a day for 5 days (5QD), by day 4 after initiation of treatment, n = 8): 100%
mean time-to-clearance ([4]; 48 mg/kg once a day for 5 days (5QD), n = 8): 3.1 days
